US7763650B2, “Pharmaceutical compound and method” (Medipharma S.A., priority 2006, dated 2010)

Legend:
[1] = system: mice; assay: RotoRod minimal neurotoxicity test; assay type: in vivo; conditions: for Protection: Rotorot test on Effective Doses 50: mouse, in vivo
Protocol: In Vivo Experiments: The pharmacological tests were performed according to standard procedures provided by the Antiepileptic Drug Development (ADD) Program of the National Institute of Neurological and Communicative Disorders and Stroke (NINCDS). Neurotoxicity tests: The RotoRod test is used exclusively in mice to assess minimal neurotoxicity. A normal mouse can maintain its equilibrium on a rotating rod (6 rpm) for long periods of time. Neurological deficit is indicated by failure to keep walking on this rotating rod in each of three trials of 1 min each. Estimation of the neurotoxic effects: Groups of 8 animals per dose were injected and tested with the RotoRod test. The percentages of animals showing minimal neurotoxicity were recorded and the higher dose producing neurotoxic effects is reported.

[2] = system: Maximal electroshock seizures; assay: Maximal electroshock seizure (MES) anticonvulsant test; assay type: in vivo; conditions: mice; for MES test: Effective doses 50: ip, at time of peak effect, micromols per Kg of mouse weight; for Relative Power in relation to 2-propylpentanoic acid (Valproic acid): MES test
Protocol: In Vivo Experiments: The pharmacological tests were performed according to standard procedures provided by the Antiepileptic Drug Development (ADD) Program of the National Institute of Neurological and Communicative Disorders and Stroke (NINCDS). Anticonvulsant tests: Maximal electroshock seizures were elicited in mice by delivering a 60 Hz/50 mA electrical stimulus for 0.2 sec. via ear clip electrodes. A drop of saline solution applied on each ear before placing the electrodes ensures adequate electrical contact. In these conditions, maximal seizures are produced in virtually all normal mice. The maximal seizure typically consists of a short period of tonic flexion followed by a longer period of tonic extension of the hind limbs and a final clonic episode. Blockade of the hind limbs tonic extensor component due to the drug treatment is taken as the end point. […] Determination of the Time of Peak Effect (TPE): […] The percentages of protection or neurotoxicity are recorded and plotted against time and the TPEs are determined by visual inspection of the graphs. Estimation of the ED50s: Groups of 8 animals per dose are injected via ip. […] The percentages of protection at each dose (converted to probit) were plotted against log-doses.

Molecule	Rotorod: animals showing neurotoxicity / animals tested ([1]; mice, dose not given)	MES test: Effective doses 50 [2] [µmol/kg]	Relative Power in relation to 2-propylpentanoic acid (Valproic acid) [2]	Protective index (Rotorod neurotoxic dose / MES ED50) ([1]; ratio of Rotorod dose to MES ED50, mice)	Protection: Rotorot test on Effective Doses 50 [1]
CCCC(CCC)C(=O)O[C@H]1[C@H](OC(=O)C(CCC)CCC)[C@@H](OC(=O)C(CCC)CCC)[C@H](OC(=O)C(CCC)CCC)[C@@H](OC(=O)C(CCC)CCC)[C@H]1OC(=O)C(CCC)CCC [Example 1, (±)1,2,3,4,5,6-hexa-O-(2-propylpentanoyl)-myo-inositol]	0/6	100	–	–	–
CCCC(CCC)C(=O)O [Valproic acid, valproic acid, reference compound]	–	1010	1	–	–
(±)-5,6-Di-O-(2-propylpentanoyl)-1,2:3,4-di-O-cyclohexyl-O-myo-inositol [Example 2]	–	80	35	12	–
CCCC(CCC)C(=O)OC1C(O)C(O)C(O)C(O)C1OC(=O)C(CCC)CCC (racemic) [Example 5, (±)-3,4-Di-O-(2-propylpentanoyl)-myo-inositol]	–	35	35	–	12
CCCC(CCC)C(=O)OC1C(O)C(O)C(OC(=O)C(CCC)CCC)C(OC(=O)C(CCC)CCC)C1OC(=O)C(CCC)CCC (racemic) [Example 4, (±)-3,4,5,6-tetra-O-(2-propylpentanoyl)-myo-inositol]	–	100	9	–	6
